Molecules are shown by their SMILES. “And” between values parts separate entries of the source, which are not always exact repeats. Identical values can stand only once. Inconclusive results and toxic doses are left out.

For the test, the system named is P388 leukemia ip, CD2F1 mice, survival T/C. The test is described as follows: NCI In Vivo Anticancer Drug Screen. Data for tumor model P388 Leukemia (intraperitoneal) in CD2F1 (CDF1) mice. Conditions: endpoint: median survival time, higher = longer survival. The gist of the method: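 Mice carrying the transplanted tumor received test compound or vehicle. Survival was recorded in each group, and the value is the treated-group measurement divided by that of the vehicle-treated control group.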

Where [1] appears, read: dose: 60.0 mg/kg/injection, schedule: Q01DX005 (ip), vehicle: saline.
Where [2] appears, read: dose: 50.0 mg/kg/injection, schedule: Q01DX009 (ip), vehicle: saline.
Where [3] appears, read: dose: 100.0 mg/kg/injection, schedule: Q01DX009 (ip), vehicle: saline.
The mark [4] stands for this setting: dose: 200.0 mg/kg/injection, schedule: Q01DX009 (ip), vehicle: saline.
[5] abbreviates: dose: 50.0 mg/kg/injection, schedule: Q01DX005 (ip), vehicle: Klucel (hydroxypropylcellulose) (HPC).
Setting [6] is: dose: 50.0 mg/kg/injection, schedule: Q01DX009 (ip), vehicle: saline with Tween-80.
Setting [7] is: dose: 100.0 mg/kg/injection, schedule: Q01DX009 (ip), vehicle: saline with Tween-80.
The mark [8] stands for this setting: dose: 200.0 mg/kg/injection, schedule: Q01DX009 (ip), vehicle: saline with Tween-80.
Setting [9] is: dose: 50.0 mg/kg/injection, schedule: Q01DX009 (ip), vehicle: Klucel (hydroxypropylcellulose) (HPC).
Setting [10] is: dose: 100.0 mg/kg/injection, schedule: Q01DX009 (ip), vehicle: Klucel (hydroxypropylcellulose) (HPC).
[11] abbreviates: dose: 200.0 mg/kg/injection, schedule: Q01DX009 (ip), vehicle: Klucel (hydroxypropylcellulose) (HPC).
[12] abbreviates: dose: 100.0 mg/kg/injection, schedule: Q01DX005 (ip), vehicle: Klucel (hydroxypropylcellulose) (HPC).
[13] abbreviates: dose: 200.0 mg/kg/injection, schedule: Q01DX005 (ip), vehicle: Klucel (hydroxypropylcellulose) (HPC).

As to `CC(C)=CCSC(N)N`, the T/C was 99 % of control (dose: 7.5 mg/kg/injection, schedule: Q01DX005 (ip), vehicle: saline); 99 % of control (dose: 15.0 mg/kg/injection, schedule: Q01DX005 (ip), vehicle: saline); 99 % of control (dose: 30.0 mg/kg/injection, schedule: Q01DX005 (ip), vehicle: saline); 101 % of control under setting [1].

For the compound `C/C=C/N1C(=O)C2C=CC1C(C(C)=O)C2` (stereo unspecified), the T/C runs as follows: (dose: 100.0 mg/kg/injection, schedule: Q04DX002 (ip), vehicle: saline) 94 % of control; (dose: 200.0 mg/kg/injection, schedule: Q04DX002 (ip), vehicle: saline) 98 % of control; (dose: 400.0 mg/kg/injection, schedule: Q04DX002 (ip), vehicle: saline) 96 % of control.

Regarding `c1cnc(Nc2c3ccccc3nc3ccccc23)nc1`, the T/C by setting is: (dose: 100.0 mg/kg/injection, schedule: Q04DX002 (ip), vehicle: saline with Tween-80) 103 % of control; (dose: 200.0 mg/kg/injection, schedule: Q04DX002 (ip), vehicle: saline with Tween-80) 103 % of control; (dose: 400.0 mg/kg/injection, schedule: Q04DX002 (ip), vehicle: saline with Tween-80) 94 % of control.

Regarding `O=C1C2=C(SCCS2)C(=O)N1c1cccc2ccccc12`, the T/C under setting [2] is 97 % of control, the T/C under setting [3] is 97 % of control and the T/C under setting [4] was 100 % of control.

Take `CC1C(O)CC23COC(=O)C2=CCCC3C1(C)CCC1=CC(=O)OC1` (stereo unspecified): the T/C was 101 % of control (dose: 8.75 mg/kg/injection, schedule: Q01DX005 (ip), vehicle: Klucel (hydroxypropylcellulose) (HPC)); 106 % of control (dose: 17.5 mg/kg/injection, schedule: Q01DX005 (ip), vehicle: Klucel (hydroxypropylcellulose) (HPC)); 92 % of control (dose: 35.0 mg/kg/injection, schedule: Q01DX005 (ip), vehicle: Klucel (hydroxypropylcellulose) (HPC)); 97 % of control (dose: 70.0 mg/kg/injection, schedule: Q01DX005 (ip), vehicle: Klucel (hydroxypropylcellulose) (HPC)).

Consider `Cc1nc(Cl)c(C)c(=O)[nH]1`, for which the T/C was 165 % of control under setting [2] and 166 % of control under setting [3].

With `CC1=CCC(C(C)(O)C2CCC3(C)C4=C(C=C5C=CC(=O)OC(C)(C)C5CC4)CCC23C)OC1=O` (stereo unspecified), the T/C (dose: 12.5 mg/kg/injection, schedule: Q01DX005 (ip), vehicle: other) is 94 % of control and the T/C (dose: 25.0 mg/kg/injection, schedule: Q01DX005 (ip), vehicle: other) is 92 % of control.

For the compound `O=S(=O)(F)c1nc(Cl)c2[nH]cnc2n1`, the T/C reads like this: (dose: 12.5 mg/kg/injection, schedule: Q01DX005 (ip), vehicle: Klucel (hydroxypropylcellulose) (HPC)) 106 % of control; (dose: 25.0 mg/kg/injection, schedule: Q01DX005 (ip), vehicle: Klucel (hydroxypropylcellulose) (HPC)) 114 % of control; under setting [5], 110 % of control and 114 % of control.

With `BrCCC[P+](c1ccccc1)(c1ccccc1)c1ccccc1`, the T/C was 116 % of control (dose: 8.25 mg/kg/injection, schedule: Q01DX009 (ip), vehicle: saline with Tween-80) and 116 % of control (dose: 12.5 mg/kg/injection, schedule: Q01DX009 (ip), vehicle: saline with Tween-80).

Regarding `COC(=O)C1=CO[C@@H](O)[C@@H]2C(C)OC(=O)C[C@H]12` (stereo partly specified), the T/C under setting [1] was 104 % of control; the T/C (dose: 120.0 mg/kg/injection, schedule: Q01DX005 (ip), vehicle: saline) was 104 % of control; the T/C (dose: 240.0 mg/kg/injection, schedule: Q01DX005 (ip), vehicle: saline) is 109 % of control.

Regarding `Cc1ccn(C)c(=N)c1`, the T/C by setting is: under setting [6], 118 % of control; under setting [7], 100 % of control; under setting [8], 104 % of control.

As to `Brc1ccc(Oc2ccc(Br)cc2)cc1`, the T/C runs as follows: under setting [9], 100 % of control; under setting [10], 98 % of control; under setting [11], 92 % of control.

As to `CC1=NCC(=O)O1`, the T/C by setting is: under setting [5], 98 % of control; under setting [12], 98 % of control; under setting [13], 102 % of control.

As for `O=C(c1ccccc1)c1ccc(NC(=O)C(F)(F)F)cc1`, the T/C runs as follows: under setting [6], 88 % of control; under setting [7], 86 % of control; under setting [8], 99 % of control.

Turning to `CCOC(=O)/C(C#N)=C/P(=O)(OCC)OCC`, the T/C reads like this: (dose: 3.12 mg/kg/injection, schedule: Q04DX003 (ip), vehicle: Klucel (hydroxypropylcellulose) (HPC)) 101 % of control; (dose: 6.25 mg/kg/injection, schedule: Q04DX003 (ip), vehicle: Klucel (hydroxypropylcellulose) (HPC)) 100 % of control; (dose: 12.5 mg/kg/injection, schedule: Q04DX003 (ip), vehicle: Klucel (hydroxypropylcellulose) (HPC)) 99 % of control.

For `N#Cc1c(NC(=S)NC(=O)c2ccc(Cl)c(Cl)c2)sc(=S)c2c1CCCC2`, the T/C is, setting by setting: under setting [6], 108 % of control; under setting [7], 96 % of control; under setting [8], 92 % of control.

For the compound `Cc1ccc(S(=O)(=O)ON=C2CC(c3ccccc3)N(C)C(c3ccccc3)C2)cc1` (stereo unspecified), the T/C runs as follows: under setting [5], 116 % of control and 101 % of control; under setting [12], 107 % of control and 104 % of control; under setting [13], 100 % of control.

As to `CCc1ccccc1N1CCN(C(=O)c2cc(OC)c(OC)c(OC)c2)CC1`, the T/C is 95 % of control (dose: 12.5 mg/kg/injection, schedule: Q01DX009 (ip), vehicle: Klucel (hydroxypropylcellulose) (HPC)); 100 % of control and 120 % of control (dose: 12.5 mg/kg/injection, schedule: Q01DX009 (ip), vehicle: saline); 104 % of control (dose: 25.0 mg/kg/injection, schedule: Q01DX009 (ip), vehicle: Klucel (hydroxypropylcellulose) (HPC)); 102 % of control and 91 % of control (dose: 25.0 mg/kg/injection, schedule: Q01DX009 (ip), vehicle: saline); 120 % of control (dose: 44.0 mg/kg/injection, schedule: Q01DX009 (ip), vehicle: saline with Tween-80); 113 % of control under setting [9]. For the same compound, the T/C runs as follows: under setting [2], 102 % of control and 93 % of control; (dose: 66.0 mg/kg/injection, schedule: Q01DX009 (ip), vehicle: saline with Tween-80) 115 % of control; (dose: 75.0 mg/kg/injection, schedule: Q04DX003 (ip), vehicle: saline with Tween-80) 109 % of control; under setting [7], 115 % of control; under setting [3], 90 % of control and 93 % of control; (dose: 100.0 mg/kg/injection, schedule: Q04DX003 (ip), vehicle: saline with Tween-80) 105 % of control. The T/C is 150 % of control (dose: 150.0 mg/kg/injection, schedule: Q01DX009 (ip), vehicle: saline with Tween-80); 114 % of control (dose: 150.0 mg/kg/injection, schedule: Q04DX003 (ip), vehicle: saline with Tween-80); 92 % of control under setting [11]; 88 % of control under setting [4]; 121 % of control (dose: 225.0 mg/kg/injection, schedule: Q04DX003 (ip), vehicle: saline with Tween-80); 100 % of control (dose: 300.0 mg/kg/injection, schedule: Q04DX003 (ip), vehicle: saline with Tween-80). For the same compound, the T/C (dose: 400.0 mg/kg/injection, schedule: Q01DX009 (ip), vehicle: saline) was 95 % of control.

In the case of `CCOC(=O)CC/C(=C/c1cccc(OC)c1)[N+](=O)[O-]`, the T/C by setting is: (dose: 50.0 mg/kg/injection, schedule: Q01DX001 (ip), vehicle: Klucel (hydroxypropylcellulose) (HPC)) 105 % of control; (dose: 100.0 mg/kg/injection, schedule: Q01DX001 (ip), vehicle: Klucel (hydroxypropylcellulose) (HPC)) 107 % of control; (dose: 200.0 mg/kg/injection, schedule: Q01DX001 (ip), vehicle: Klucel (hydroxypropylcellulose) (HPC)) 107 % of control.

Take `COc1cc(OC)c(C2CC(C)(N3CCCC3)Oc3cc4c(cc32)OCO4)c(OC)c1` (stereo unspecified): the T/C by setting is: (dose: 60.0 mg/kg/injection, schedule: Q01DX005 (ip), vehicle: saline with Tween-80) 94 % of control; (dose: 120.0 mg/kg/injection, schedule: Q01DX005 (ip), vehicle: saline with Tween-80) 91 % of control; (dose: 240.0 mg/kg/injection, schedule: Q01DX005 (ip), vehicle: saline with Tween-80) 87 % of control.

Consider `O=C(N/N=C\c1cc([N+](=O)[O-])ccc1O)C(=O)N/N=C\c1cc([N+](=O)[O-])ccc1O`, for which the T/C is, setting by setting: under setting [9], 106 % of control; under setting [10], 95 % of control; under setting [11], 99 % of control.

Regarding `Cc1nc(Nc2ccccc2Cl)c2ccsc2n1`, the T/C under setting [5] is 100 % of control, the T/C under setting [12] was 93 % of control and the T/C under setting [13] was 87 % of control.

For the origin of these results see PubChem BioAssay AID330 (DTP/NCI, 2004).
